In PMC12592139, “Quantitative assessment of the usability of electromechanical human-based modelling and simulation to replace Langendorff isolated rabbit heart experiments in the preclinical setting” (Frontiers in Pharmacology, 2025):
Like-named read-outs stand apart in the source and are kept apart here.

Legend:
hERG channel = hERG channel (Homo sapiens, UniProt Q12809); assay: Automated patch-clamp (QPatch) on hERG channel
Description: (§1) The QPatch system (Sophion, Denmark) was used to investigate hERG, hNav1.5 and hKv4.3, and the SyncroPatch system (Nanion, Germany) was employed for hCav1.2. Recordings for all 37 compounds were performed at 21 °C.
(§2) When a Hill coefficient was not available, it was approximated as 1.

late hNav1.5 = late hNav1.5 (Homo sapiens, UniProt Q14524); assay: Late hNav1.5 inhibition in vitro; type: cell-based
hNav1.5 = hNav1.5 (Homo sapiens, UniProt Q14524); assay: Automated patch-clamp (QPatch) on hNav1.5 (peak sodium current)
Sequence of hNav1.5 (Q14524 whole entry): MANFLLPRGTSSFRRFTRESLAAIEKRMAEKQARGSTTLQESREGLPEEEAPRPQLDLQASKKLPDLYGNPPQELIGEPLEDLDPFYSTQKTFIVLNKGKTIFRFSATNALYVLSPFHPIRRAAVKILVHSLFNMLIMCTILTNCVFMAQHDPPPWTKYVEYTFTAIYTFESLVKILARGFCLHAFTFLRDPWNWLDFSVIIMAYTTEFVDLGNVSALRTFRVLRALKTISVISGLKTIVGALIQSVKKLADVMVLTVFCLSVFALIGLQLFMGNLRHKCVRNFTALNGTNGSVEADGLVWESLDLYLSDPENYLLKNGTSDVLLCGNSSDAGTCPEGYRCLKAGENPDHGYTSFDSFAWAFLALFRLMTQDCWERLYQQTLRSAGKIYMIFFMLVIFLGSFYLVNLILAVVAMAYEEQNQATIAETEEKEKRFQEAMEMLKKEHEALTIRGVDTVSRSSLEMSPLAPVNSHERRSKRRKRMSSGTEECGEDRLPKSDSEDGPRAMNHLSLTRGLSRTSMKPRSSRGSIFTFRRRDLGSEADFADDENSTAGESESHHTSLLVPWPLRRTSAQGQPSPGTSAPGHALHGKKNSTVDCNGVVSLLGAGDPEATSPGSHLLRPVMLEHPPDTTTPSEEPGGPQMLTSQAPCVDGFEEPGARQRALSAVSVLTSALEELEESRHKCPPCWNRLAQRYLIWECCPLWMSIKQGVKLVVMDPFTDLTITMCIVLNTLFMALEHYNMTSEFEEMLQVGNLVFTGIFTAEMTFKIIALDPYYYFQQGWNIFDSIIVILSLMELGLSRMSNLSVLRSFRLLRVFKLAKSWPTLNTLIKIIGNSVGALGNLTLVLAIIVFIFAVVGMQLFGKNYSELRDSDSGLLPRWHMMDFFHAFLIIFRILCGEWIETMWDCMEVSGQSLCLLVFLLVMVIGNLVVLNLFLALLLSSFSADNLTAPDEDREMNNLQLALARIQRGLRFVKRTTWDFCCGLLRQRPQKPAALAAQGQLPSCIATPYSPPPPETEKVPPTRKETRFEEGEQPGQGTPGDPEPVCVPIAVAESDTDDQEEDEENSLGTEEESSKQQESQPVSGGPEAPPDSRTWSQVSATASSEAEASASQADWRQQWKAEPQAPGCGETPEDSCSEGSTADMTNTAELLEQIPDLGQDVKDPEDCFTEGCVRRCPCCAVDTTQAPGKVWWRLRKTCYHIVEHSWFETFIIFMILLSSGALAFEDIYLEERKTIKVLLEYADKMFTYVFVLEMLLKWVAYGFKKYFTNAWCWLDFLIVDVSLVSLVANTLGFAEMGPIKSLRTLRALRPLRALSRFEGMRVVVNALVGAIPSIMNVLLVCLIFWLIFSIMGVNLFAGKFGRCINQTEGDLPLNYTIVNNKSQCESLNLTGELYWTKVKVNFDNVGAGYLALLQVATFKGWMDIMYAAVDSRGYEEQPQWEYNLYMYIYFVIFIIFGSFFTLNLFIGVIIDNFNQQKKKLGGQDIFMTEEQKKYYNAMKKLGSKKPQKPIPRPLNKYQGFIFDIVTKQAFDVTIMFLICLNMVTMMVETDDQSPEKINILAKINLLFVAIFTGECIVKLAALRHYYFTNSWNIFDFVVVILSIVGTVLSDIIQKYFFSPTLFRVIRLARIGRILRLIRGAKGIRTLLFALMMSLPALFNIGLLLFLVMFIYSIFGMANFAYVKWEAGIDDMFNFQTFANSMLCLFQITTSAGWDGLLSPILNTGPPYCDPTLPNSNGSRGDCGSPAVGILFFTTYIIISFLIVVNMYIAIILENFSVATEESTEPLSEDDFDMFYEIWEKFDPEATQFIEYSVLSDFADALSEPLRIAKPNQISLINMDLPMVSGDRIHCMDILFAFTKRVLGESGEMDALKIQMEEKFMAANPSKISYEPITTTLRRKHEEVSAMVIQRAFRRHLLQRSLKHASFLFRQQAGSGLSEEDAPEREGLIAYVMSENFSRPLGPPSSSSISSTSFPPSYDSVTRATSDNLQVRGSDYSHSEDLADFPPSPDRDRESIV
Description: as §1, §2

QTc = settings: clinical, administered in isolation; ref El Kadri et al., 2022; Morrisette et al., 2020; cited from earlier work
hNCX1 = molecular target: T1, hNCX1 (Homo sapiens, UniProt P32418); assay: Cell-based calcium mobilization assay on CHO cell lines expressing NCX1; settings: for IC50: Fluo4-AM
T1 construct: expressed in transfected cells; host or cells: CHO cell lines
Description: Furthermore, in vitro potency for 11 compounds was assessed on the NCX isoforms using a cell-based calcium mobilization assay on CHO cell lines expressing NCX1, NCX2 or NCX3. Measurements of intracellular calcium concentration employed a fluorescent imaging plate reader (Molecular Devices, United States) with the calcium-sensitive dye Fluo4-AM. Detailed methods are described in [Pelat et al. (2021)].

hCav1.2 = hCav1.2 (Homo sapiens, UniProt Q13936); assay: Automated patch-clamp (SyncroPatch) on hCav1.2
Description: as §1, §2

hKv4.3 = molecular target: T2, hKv4.3 (Homo sapiens, UniProt Q9UK17); assay: Automated patch-clamp (QPatch) on hKv4.3; type: cell-based
T2 construct: expressed in transfected cells
T2 sequence (Q9UK17 1-655): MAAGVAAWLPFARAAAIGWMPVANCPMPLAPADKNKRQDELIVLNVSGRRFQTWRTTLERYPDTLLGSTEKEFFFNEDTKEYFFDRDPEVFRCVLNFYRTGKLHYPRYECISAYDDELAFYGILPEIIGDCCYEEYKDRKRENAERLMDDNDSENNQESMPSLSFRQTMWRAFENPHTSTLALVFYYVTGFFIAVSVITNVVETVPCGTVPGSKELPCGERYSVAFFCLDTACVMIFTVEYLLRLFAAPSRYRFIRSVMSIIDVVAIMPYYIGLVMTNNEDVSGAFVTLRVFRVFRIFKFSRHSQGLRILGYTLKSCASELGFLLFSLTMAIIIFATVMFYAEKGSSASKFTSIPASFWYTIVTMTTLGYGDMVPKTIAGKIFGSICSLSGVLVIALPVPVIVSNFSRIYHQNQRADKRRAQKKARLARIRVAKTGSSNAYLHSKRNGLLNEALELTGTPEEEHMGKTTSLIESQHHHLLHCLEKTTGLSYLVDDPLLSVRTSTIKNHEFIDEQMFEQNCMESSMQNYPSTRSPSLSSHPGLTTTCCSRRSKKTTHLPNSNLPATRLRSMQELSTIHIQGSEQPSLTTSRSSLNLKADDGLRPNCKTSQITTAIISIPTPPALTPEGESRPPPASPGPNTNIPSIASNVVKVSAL
Description: Following the procedure in [Trovato et al. (2022)], we used automated patch-clamp platforms to study four ionic currents relevant to human repolarisation, as outlined by [Zhou et al. (2020)] as the minimum set of ion channels, marked by the CiPA Ion Channel Work Group, for reliable predictions of repolarisation abnormalities. […] The QPatch system (Sophion, Denmark) was used to investigate hERG, hNav1.5 and hKv4.3, and the SyncroPatch system (Nanion, Germany) was employed for hCav1.2. Recordings for all 37 compounds were performed at 21 °C.
as §2

L-type calcium current = tested on: L-type calcium current; set-up: method as in Trovato et al., 2025; settings: at EC50; ref Trovato et al., 2025; cited from earlier work
isolated rabbit heart = assay: Ex vivo rabbit whole-heart Langendorff experiments (QT, left ventricular pressure); settings: 0.1µM
Description: Routine experimental measurements used in this study were retrieved from already existing datasets collected and curated by Sanofi, contributing to the 3R principles in animal experimentation: replacement, reduction and refinement. All the procedures described in the present study were performed in agreement with the European regulation (2010/63/EU) and under the approval and control of Sanofi’s ethics committee. […]
Hearts were spontaneously beating. […] The left ventricular pressure was evaluated using a pressure transducer within a saline-filled latex balloon inserted into the ventricular chamber. […] The electrocardiogram was recorded with two flexible electrodes gently pressed on the epicardium. The ECG parameters PQ, QRS, and QT durations were calculated using specific software (HEM-Notocord systems).
After stabilization, pressure was recorded with the vehicle for 15 min and used as a control period. […]
Baseline biomarker measurements were established in control conditions for both ex vivo experiments and in silico simulations, benchmarking compound results at each concentration against these respective controls. Percent variations of means for experiments and simulations were calculated. In the population, these variations were measured against each cell’s control, and the group mean is calculated.

[1] = CHO cells, calcium mobilization

Sequence of hERG channel (Q12809 whole entry): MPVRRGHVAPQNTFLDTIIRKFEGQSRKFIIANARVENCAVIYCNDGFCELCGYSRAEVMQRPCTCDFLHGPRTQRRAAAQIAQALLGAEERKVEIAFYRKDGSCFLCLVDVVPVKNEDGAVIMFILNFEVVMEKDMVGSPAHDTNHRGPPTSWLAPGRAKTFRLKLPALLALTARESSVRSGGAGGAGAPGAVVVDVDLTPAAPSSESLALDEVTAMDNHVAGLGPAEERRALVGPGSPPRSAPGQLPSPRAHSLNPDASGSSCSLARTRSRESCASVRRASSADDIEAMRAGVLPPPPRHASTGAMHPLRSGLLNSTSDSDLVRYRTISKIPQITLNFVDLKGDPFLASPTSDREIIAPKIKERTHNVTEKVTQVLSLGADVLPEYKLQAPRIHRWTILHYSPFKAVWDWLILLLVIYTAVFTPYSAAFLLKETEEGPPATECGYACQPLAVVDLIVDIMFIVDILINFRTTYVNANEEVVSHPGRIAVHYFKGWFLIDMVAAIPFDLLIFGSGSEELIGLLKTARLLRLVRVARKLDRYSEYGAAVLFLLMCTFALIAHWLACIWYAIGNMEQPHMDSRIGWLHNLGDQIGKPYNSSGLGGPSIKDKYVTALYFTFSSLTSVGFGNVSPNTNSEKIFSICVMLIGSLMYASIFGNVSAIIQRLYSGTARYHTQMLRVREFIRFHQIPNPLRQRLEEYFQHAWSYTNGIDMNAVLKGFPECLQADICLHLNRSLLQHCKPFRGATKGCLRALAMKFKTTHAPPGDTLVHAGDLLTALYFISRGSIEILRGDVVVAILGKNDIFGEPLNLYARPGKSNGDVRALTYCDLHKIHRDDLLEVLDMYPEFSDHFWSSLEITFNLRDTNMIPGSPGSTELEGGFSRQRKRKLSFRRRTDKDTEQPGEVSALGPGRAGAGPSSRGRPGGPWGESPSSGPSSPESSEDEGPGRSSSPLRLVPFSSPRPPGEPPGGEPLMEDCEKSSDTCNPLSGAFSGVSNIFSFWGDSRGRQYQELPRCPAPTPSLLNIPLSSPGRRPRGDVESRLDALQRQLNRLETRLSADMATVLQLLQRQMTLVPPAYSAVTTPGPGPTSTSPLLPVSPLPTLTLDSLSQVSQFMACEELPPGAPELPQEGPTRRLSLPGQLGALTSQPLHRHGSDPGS

hNCX1 % block @ 30 µM (hNCX1)	Compound	IC50 (hERG channel)	IC50 (hNav1.5)	IC50 (hCav1.2)	other results
–	[H]/N=C(\N/C(=N/[H])Nc1ccc(Cl)cc1)NC(C)C [SA1790, Paludrine]	> 30 µM	–	–	–
14%	CCN(CCO)CCCC(C)Nc1ccnc2cc(Cl)ccc12 (centres unmarked) [SA1068, Hydroxychloroquine]	7 µM	90 µM	7.6 µM	Late Nav1.5 % block @ 30 µM (late hNav1.5; 30 µM): 15%; IC50 (late hNav1.5; read-out: Late Nav1.5 IC50): > 30 µM; average increase in QTc (QTc): 11 ms; IC50 (hNCX1; [1]): > 30 µM
17.00%	CN=C(N)NC(=O)Nc1c(C)cccc1C [SA9977, Lidamidine]	–	–	–	IC50 (hERG channel; human): > 30 µM
–	C=C(C)[C@@H]1CCC(C)=C[C@H]1c1c(O)cc(CCCCC)cc1O [SA5067, Cannabidiol]	21.8 µM	28.1 µM	11.8 µM	IC50 (hKv4.3): 7.75 µM; hNCX1 nh (Hill coefficient) (hNCX1; [1]): nH 1.7; IC50 (hNCX1; [1]): 18.9 µM
–	CN1CCN(C2=Nc3cc(Cl)ccc3Nc3ccccc32)CC1 [SA5332, Clozapine]	–	23.2 µM	–	IC50 (hKv4.3; automated patch-clamp, 21 °C, IC50 not achieved taken at maximum concentration or estimated with Hill coefficient 1, read-out: Kv4.3 IC50): 61.7 µM
–	CN(C)C(=O)C(CCN1CCC(O)(c2ccc(Cl)cc2)CC1)(c1ccccc1)c1ccccc1 [SA2089, Loperamide]	–	2.1 µM	3.9 µM	–
–	COC(=O)N1CCN(Cc2cccc(NC(=O)Nc3ccc(C)nc3)c2F)CC1 [SA3064, Omecamtiv]	–	–	–	IC50 (hERG channel; read-out: hERG IC50, automated patch-clamp, 21 °C, IC50 not achieved taken at maximum concentration or estimated with Hill coefficient 1): 126 µM
–	C[C@@H]1OCC2(CCN(c3cnc(Sc4ccnc(N)c4Cl)c(N)n3)CC2)[C@@H]1N [SA6687, Batoprotafib]	8 µM	–	–	–
15.00%	CC(CCc1ccc(O)cc1)NCCc1ccc(O)c(O)c1 (centres unmarked) [Dobutamine]	22.1 µM	–	–	increase of L-type calcium current (factor) (L-type calcium current): 1.22; NCX inhibition (hNCX1): does not inhibit; increase in ventricular pressure (isolated rabbit heart): 17%

Compound	hNCX1 % block @ 30 µM (hNCX1)	IC50 (hERG channel)	IC50 (hNav1.5)	IC50 (hCav1.2)	other results
CCN(CC)CC(=O)Nc1c(C)cccc1C [SA5350, Lidocaine]	6.00%	–	–	–	–
